The nature of data set [1]: permanent-waving of hair wound onto curlers with a simplified aqueous composition. The conditions noted are these: Caucasian hair wound onto curlers. How it is done: In the permanent shaping processes described herein, the composition is applied to wet or dry hair, wound beforehand onto rollers (curlers) having a diameter of from 2 mm to 30 mm. It is also possible to apply the composition as the hair is wound up. […] This composition was applied to Caucasian hair, wound beforehand onto curlers, for 15 minutes at a temperature of 30° C. […] This composition was applied to Caucasian hair, wound beforehand onto curlers, for 25 minutes at a temperature of 30° C. […] This composition was applied to Caucasian hair, wound beforehand onto curlers, for 15 minutes at a temperature of 30° C. […] This composition was applied to Caucasian hair, wound beforehand onto curlers, for 20 minutes at a temperature of 30° C.

Data set [2] can be described thus: pH of the simplified permanent-waving composition. It is filed as physicochemical. The method, then: […]. The pH of the composition was 13.6. This composition was applied to Caucasian hair, wound beforehand onto curlers, for 15 minutes at a temperature of 30° C.
[…]. The pH of the composition was 13.5. This composition was applied to Caucasian hair, wound beforehand onto curlers, for 25 minutes at a temperature of 30° C.
A simplified permanent-waving composition was prepared, containing, as a permanent-waving active agent, 1,3,4,6,7,8-hexahydro-2H-pyrimido[1,2-a]pyrimidine (Registry Number [5807-14-7]) at a concentration of 0.7 M in water. The pH of the composition was 13.5. This composition was applied to Caucasian hair, wound beforehand onto curlers, for 15 minutes at a temperature of 30° C.
A simplified permanent-waving composition was prepared, containing, as a permanent-waving active agent, 1,3,4,6,7,8-hexahydro-2H-pyrimido[1,2-a]pyrimidine (Registry Number [5807-14-7]) at a concentration of 0.5M in water. The pH of the composition was 13.4. This composition was applied to Caucasian hair, wound beforehand onto curlers, for 20 minutes at a temperature of 30° C.

Regarding `C1CN=C2NCCCN2C1` [1,3,4,6,7,8-hexahydro-2H-pyrimido[1,2-a]pyrimidine], the “result on the hair after permanent-waving (curl and feel)” value in data set [1] (0.5M in water, applied 20 minutes at 30° C.) is “beautifully curly and felt soft”; in data set [1] (0.7 M in water, applied 15 minutes at 30° C.), “beautifully curly and felt soft”. Besides, the entries for the “pH of the composition” value in data set [2] (0.5M in water) and in data set [2] (0.7 M in water) were 13.4 and 13.5, respectively.

`CN(C)C(=N)NC(=N)N` [1,1-dimethylbiguanide]: the “pH of the composition” value in data set [2] (0.5M in water) came out at 13.5; in data set [2] (0.7 M in water) it was 13.6.

Source of the values: patent US20090194124A1, “Hair Shaping Kit and Process Comprising at Least One Non-Hydroxide Imine” (priority 2003, published 2009).
